Reference: PMC3164524 (Biochemistry, 2011)
Square brackets hold non-standard residues; d marks the D form. Peptide text beside a SMILES is read from it. pY = N[C@@H](Cc1ccc(OP(=O)(O)O)cc1)C(=O)O

Molecular target: T1, SHP-2 N-SH2 domain (Homo sapiens, UniProt Q06124)
T1 sequence (Q06124 1-106): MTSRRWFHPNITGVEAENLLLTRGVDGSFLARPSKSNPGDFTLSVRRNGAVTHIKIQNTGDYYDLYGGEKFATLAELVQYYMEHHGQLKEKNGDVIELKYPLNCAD
Experiment: SPR competition assay against immobilized pYAQL peptide
Format: binding

IC50: 600 ± 100 nM
Compound: CC(C)C[C@H](NC(=O)[C@H](CCC(N)=O)NC(=O)[C@H](C)NC(=O)[C@H](Cc1ccc(OP(=O)(O)O)cc1)NC(=O)[C@H](CC(N)=O)NC(=O)[C@H](CC(C)C)NC(=O)[C@@H](N)CCCNC(=N)N)C(=O)N[C@@H](Cc1c[nH]c2ccccc12)C(=O)N[C@@H](Cc1c[nH]cn1)C(=O)N[C@@H](CCCNC(=N)N)C(N)=O [pYAQL] (H-RLN[pY]AQLWHR-NH2)
